Source: PubChem BioAssay (NCI)
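Values below derive from 48-hour exposures of cells grown in 96-well plates, with endpoints linearly interpolated between the two concentrations bracketing the appropriate inhibition level. At the GI50, growth is halved. At the TGI there is no net growth.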

What was measured:
Test in all cases: DTP human tumour cell line panel, 48 h
[1] = tested on: HCT-15 colon
[2] = tested on: ACHN renal
[3] = tested on: UACC-62 melanoma
[4] = tested on: LOX IMVI melanoma
[5] = tested on: SNB-75 CNS
[6] = tested on: CAKI-1 renal
[7] = tested on: SW-620 colon
[8] = tested on: MALME-3M melanoma
[9] = tested on: HCC-2998 colon
[10] = tested on: NCI/ADR-RES ovarian
[11] = tested on: A549 NSCLC
[12] = tested on: SNB-19 CNS
[13] = tested on: SF-295 CNS
[14] = tested on: U251 CNS
[15] = tested on: SF-268 CNS
[16] = tested on: HL-60(TB) leukemia
[17] = tested on: HS 578T breast
[18] = tested on: OVCAR-3 ovarian
[19] = tested on: RPMI-8226 leukemia
[20] = tested on: MOLT-4 leukemia
[21] = tested on: OVCAR-5 ovarian
[22] = tested on: UO-31 renal
[23] = tested on: SK-MEL-2 melanoma
[24] = tested on: DU-145 prostate
[25] = tested on: HT29 colon
[26] = tested on: TK-10 renal
[27] = tested on: T-47D breast
[28] = tested on: KM12 colon
[29] = tested on: RXF 393 renal
[30] = tested on: OVCAR-4 ovarian
[31] = tested on: CCRF-CEM leukemia
[32] = tested on: MCF7 breast
[33] = tested on: SR leukemia
[34] = tested on: 786-0 renal
[35] = tested on: UACC-257 melanoma
[36] = tested on: EKVX NSCLC
[37] = tested on: MDA-MB-231 breast
[38] = tested on: HOP-92 NSCLC
[39] = tested on: SN12C renal
[40] = tested on: SK-MEL-28 melanoma
[41] = tested on: MDA-MB-435
[42] = tested on: M14 melanoma
[43] = tested on: NCI-H23 lung
[44] = tested on: HCT-116 colon
[45] = tested on: IGROV1 ovarian
[46] = tested on: PC-3 prostate
[47] = tested on: SK-MEL-5 melanoma
[48] = tested on: NCI-H460 lung
[49] = tested on: NCI-H522 lung
[50] = tested on: SF-539 CNS
[51] = tested on: K-562 leukemia
[52] = tested on: A498 renal
[53] = tested on: OVCAR-8 ovarian
[54] = tested on: COLO 205 colon
[55] = tested on: HOP-62 NSCLC
[56] = tested on: NCI-H226 lung
[57] = tested on: SK-OV-3 ovarian
[58] = tested on: BT-549 breast

CNc1ccc2c(c1)Cc1ccccc1-2
TGI [1]: > 100 µM
TGI [2]: > 100 µM
TGI [3]: 89.7 µM
TGI [4]: > 100 µM
TGI [5]: > 100 µM
TGI [6]: 90.7 µM
TGI [7]: > 100 µM
TGI [8]: > 100 µM
TGI [9]: > 100 µM
TGI [10]: > 100 µM
TGI [11]: 56.2 µM
TGI [12]: > 100 µM
TGI [13]: > 100 µM
TGI [14]: > 100 µM
TGI [15]: > 100 µM
TGI [16]: > 100 µM
TGI [17]: 91.5 µM
TGI [18]: 62.5 µM
TGI [19]: > 100 µM
TGI [20]: 98.7 µM
TGI [21]: > 100 µM
TGI [22]: > 100 µM
TGI [23]: > 100 µM
TGI [24]: > 100 µM
TGI [25]: > 100 µM
TGI [26]: 93.8 µM
TGI [27]: > 100 µM
TGI [28]: 99.5 µM
TGI [29]: > 100 µM
TGI [30]: > 100 µM
TGI [31]: > 100 µM
TGI [32]: > 100 µM
TGI [33]: 91.2 µM
TGI [34]: > 100 µM
TGI [35]: > 100 µM
TGI [36]: > 100 µM
TGI [37]: > 100 µM
TGI [38]: 64.1 µM
TGI [39]: > 100 µM
TGI [40]: > 100 µM
TGI [41]: 69.3 µM
TGI [42]: 71.3 µM
TGI [43]: > 100 µM
TGI [44]: > 100 µM
TGI [45]: > 100 µM
TGI [46]: > 100 µM
TGI [47]: 74.7 µM
TGI [48]: > 100 µM
TGI [49]: 50.8 µM
TGI [50]: > 100 µM
TGI [51]: > 100 µM
TGI [52]: 71.1 µM
TGI [53]: 59.6 µM
TGI [54]: > 100 µM
TGI [55]: > 100 µM
TGI [56]: > 100 µM

COc1ccc2c(c1)C=CC(C#N)N2C(=O)c1ccccc1 (centres undefined)
GI50 [1]: < 0.01 µM
TGI [1]: > 100 µM
GI50 [2]: 0.0411 µM
TGI [2]: > 100 µM
GI50 [3]: < 0.01 µM
TGI [3]: > 100 µM
GI50 [4]: < 0.01 µM
TGI [4]: > 100 µM
GI50 [5]: < 0.01 µM
TGI [5]: > 100 µM
GI50 [6]: < 0.01 µM
TGI [6]: > 100 µM
GI50 [57]: < 0.01 µM
TGI [57]: > 100 µM
GI50 [7]: < 0.01 µM
TGI [7]: > 100 µM
GI50 [9]: 0.0129 µM
TGI [9]: > 100 µM
GI50 [10]: < 0.0464 µM
GI50 [11]: < 0.01 µM
TGI [11]: > 100 µM
GI50 [12]: < 0.01 µM
TGI [12]: > 100 µM
GI50 [13]: < 0.01 µM
TGI [13]: > 100 µM
GI50 [14]: < 0.01 µM
TGI [14]: > 100 µM
GI50 [15]: 0.488 µM
TGI [15]: > 100 µM
GI50 [16]: < 0.01 µM
GI50 [17]: < 0.01 µM
TGI [17]: > 100 µM
GI50 [18]: < 0.01 µM
GI50 [19]: < 0.01 µM
TGI [19]: > 100 µM
GI50 [20]: < 0.01 µM
TGI [20]: > 100 µM
TGI [21]: > 100 µM
GI50 [22]: < 0.01 µM
TGI [22]: > 100 µM
TGI [58]: > 67.5 µM
GI50 [23]: < 0.01 µM
TGI [23]: > 100 µM
GI50 [24]: < 0.01 µM
TGI [24]: > 100 µM
GI50 [25]: < 0.01 µM
TGI [25]: > 42.1 µM
GI50 [26]: 33.7 µM
TGI [26]: > 100 µM
GI50 [28]: < 0.01 µM
TGI [28]: > 100 µM
GI50 [30]: 0.0283 µM
TGI [30]: > 100 µM
GI50 [31]: < 0.01 µM
TGI [31]: > 100 µM
GI50 [32]: < 0.01 µM
TGI [32]: > 100 µM
GI50 [33]: < 0.01 µM
TGI [33]: > 100 µM
GI50 [34]: < 0.01 µM
TGI [34]: > 100 µM
GI50 [35]: 45.2 µM
TGI [35]: > 100 µM
GI50 [36]: < 0.01 µM
TGI [36]: > 100 µM
GI50 [37]: < 0.01 µM
TGI [37]: 3.14 µM
TGI [38]: 45.9 µM
GI50 [39]: < 0.0119 µM
TGI [39]: > 100 µM
TGI [40]: > 100 µM
GI50 [43]: < 0.01 µM
TGI [43]: > 100 µM
GI50 [44]: < 0.01 µM
TGI [44]: > 100 µM
TGI [45]: > 100 µM
GI50 [46]: < 0.01 µM
TGI [46]: > 100 µM
GI50 [47]: < 0.01 µM
TGI [47]: 4.68 µM
GI50 [48]: < 0.01 µM
TGI [48]: 36.7 µM
GI50 [49]: < 0.01 µM
TGI [49]: 0.188 µM
GI50 [50]: < 0.01 µM
TGI [50]: 0.0238 µM
GI50 [51]: < 0.01 µM
TGI [51]: > 100 µM
GI50 [52]: < 0.01 µM
TGI [52]: 0.0825 µM
GI50 [53]: < 0.01 µM
TGI [53]: > 100 µM
GI50 [54]: < 0.01 µM
TGI [54]: < 0.048 µM
GI50 [55]: < 0.01 µM
TGI [55]: > 100 µM
GI50 [56]: 4.16 µM
TGI [56]: > 100 µM
